Source: US20240140991A1, “ANTIBIOTIC NATURAL PRODUCT ANALOGUES” (THE QUEEN'S UNIVERSITY OF BELFAST, priority 2021, published 2024)
Values after ≈ are worked out from the molar mass of the structure shown. Positions of bridges follow the written chain, without caps; N, C: chain ends. Non-standard residues stand in square brackets, D forms with d. Residues, ends and D or L forms follow the SMILES beside them. ξ: configuration not given here. *: point of attachment. Octanoyl(7-Me) = CC(C)CCCCCC(=O)*; Hexanoyl(4ξ-Me) = CCC(C)CCC(=O)*; dOrn = NCCC[C@@H](N)C(=O)O; Orn = NCCC[C@H](N)C(=O)O; Dap = NC[C@H](N)C(=O)O

Tests used:
HepG2 cells = experiment: Cytotoxicity MTT assay; details: HepG2, 128 μg/mL, 24 h
Experimental: In addition to a single vehicle control, compounds (diluted from DMSO stock) were added to each well to obtain in a final 128 μg/mL concentration (max. final DMSO concentration 0.5%) for all compounds except for oritavancin which was administered at 50 μM. Incubation was done for 24 h at 37° C., 7% CO2. After the incubation, MTT was added to each well at a final concentration of 0.40 mg/mL. The plates were then incubated for 2 h at 37° C., 7% CO2. Medium was carefully removed via suction, and purple formazan crystals were resuspended in 100 μL DMSO. Absorbance was read at 570 nm using a Clariostar plate reader. The data was then analysed with GraphPad Prism software. Technical triplicates for each condition were used, along with biological duplicates.

E. coli MCR-1 = assay type: cell-based, Escherichia coli; details: E. coli MCR-1 clinical isolate (colistin resistant)
Experimental: (§1) Minimum inhibitory concentration (MIC) was determined by broth microdilution according to CLSI guidelines. Blood agar plates were inoculated with glycerol stocks of Escherichia coli ATCC 25922, E. coli ATCC 25922 MCR-1, E. coli MCR-1 (clinical isolate from Utrecht Medical Center, NL), E. coli EQAS MCR-2 (clinical isolate from Wageningen University and Research, NL), Kiebsielia pneumoniae ATCC 11228, K. pneumoniae ATCC 13883, K. pneumonia 2048 (clinical isolate from Vrije Universiteit Amsterdam Medical Center, NL), K. pneumonia JS-123 (clinical isolate from Utrecht Medical Center, NL), Acinetobacter baumannii ATCC 17961, A. baumannil ATCC 17978, A. baumannii 2018-006 (clinical isolate from Rijksinstituut voor Volksgezondheid en Milieu, NL), A. baumannii MDR (clinical isolate from Vrije Universiteit Amsterdam Medical Center, NL), Pseudomonas aeruginosa ATCC 27853, P. aeruginosa PAO1, P. aeruginosa NRZ-03961 (Reference strain from Das Nationale Referenzzentrum für gramnegative Krankenhauserreger, DE), P. aeruginosa M-120 (clinical isolate from Leiden University Medical Center, NL) and Staphylococcus aureus USA300 (clinical isolate from Texas Children's Hospitalm, USA). E. coli 25922 MCR1 was grown on LB agar supplemented with kanamycin. The inoculated agar plates were then incubated for 16 hours at 37° C. Individually grown colonies were subsequently used to inoculate 3 mL aliquots of TSB that were then incubated at 37° C. with shaking at 220 rpm. In parallel, the compounds to be assessed were serially diluted with Mueller-Hinton broth (MHB) in polypropylene 96-well plates (50 μL in each well). Once the OD600 of the bacterial suspensions reached 0.5, the bacteria were diluted with MHB (final concentration 2×10^5 CFU mL^−1) and added to the microplates containing the test compounds (50 μL to each well, final volume: 100 μL). The well-plates were sealed with an adhesive membrane and after 16 hours of incubation at 37° C. with shaking at 220 rpm the wells were visually inspected for bacterial growth. MIC values were defined as the lowest concentration of the compound that prevented visible growth of bacteria.
(§2) In the table above, “MCR” denotes that one of the MCR family of genes, which confers colistin resistance, is present in the bacterial strain. Thus, E. coli ATCC 25922 MCR-1, E. coli MCR-1 and E. coli EQAS MCR-2 are each colistin resistant. […] Therefore, laterocidamide may overcome some of the challenges faced due to antibiotic resistance.

E. coli ATCC 25922 MCR-1 = assay type: cell-based, Escherichia coli; details: E. coli ATCC 25922 MCR-1 (colistin resistant)
Experimental: as §1, §2

A. baumannii MDR = assay type: cell-based, Acinetobacter baumannii; details: A. baumannii MDR clinical isolate
Experimental: as §1

A. baumannii ATCC 17978 = assay type: cell-based, Acinetobacter baumannii; details: ATCC 17978
Experimental: as §1

A. baumannii 2018-006 = assay type: cell-based, Acinetobacter baumannii; details: 2018-006
Experimental: as §1

P. aeruginosa M-120 = assay type: cell-based, Pseudomonas aeruginosa; details: M-120
Experimental: as §1

P. aeruginosa PAO1 = assay type: cell-based, Pseudomonas aeruginosa; details: PAO1
Experimental: as §1

P. aeruginosa NRZ-03961 = assay type: cell-based, Pseudomonas aeruginosa; details: NRZ-03961
Experimental: as §1

[1] = test system: Staphylococcus aureus USA300; assay type: cell-based; details: USA300
Procedure, shortened: (§3)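 Broth microdilution in MHB per CLSI; inoculum 2×10^5 CFU mL^−1 from log-phase TSB cultures at OD600 0.5. Plates incubated 16 hours at 37° C with shaking at 220 rpm. MIC is the lowest concentration preventing visible growth.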

[2] = test system: Escherichia coli ATCC 25922; assay type: cell-based; details: ATCC 25922
Procedure, shortened: as §3

[3] = test system: Acinetobacter baumannii ATCC 17961; assay type: cell-based; details: ATCC 17961
Procedure, shortened: as §3

[4] = test system: Pseudomonas aeruginosa ATCC 27853; assay type: cell-based; details: ATCC 27853
Procedure, shortened: as §3

K. pneumoniae ATCC 11228 = assay type: cell-based, Klebsiella pneumoniae; details: ATCC 11228
Experimental: as §1

K. pneumoniae JS-123 = assay type: cell-based, Klebsiella pneumoniae; details: JS-123
Experimental: as §1

K. pneumoniae 2048 = assay type: cell-based, Klebsiella pneumoniae; details: 2048
Experimental: as §1

K. pneumoniae ATCC 13883 = assay type: cell-based, Klebsiella pneumoniae; details: ATCC 13883
Experimental: as §1

E. coli EQAS MCR-2 = assay type: cell-based, Escherichia coli; details: E. coli EQAS MCR-2 clinical isolate (colistin resistant)
Experimental: as §1, §2

E. Coli NCTC 12241 = assay type: cell-based
Experimental: as §1
were tested for inhibition of E. Coli NCTC 12241.

E. coli = assay type: cell-based

Structure (SMILES): CCC(C)CCC(=O)N[C@H](CC(N)=O)C(=O)N[C@H](Cc1ccc(O)cc1)C(=O)N[C@H](Cc1c[nH]c2ccccc12)C(=O)N[C@H](CCCN)C(=O)N[C@@H](CCCN)C(=O)NCC(=O)N[C@H](CCCN)C(=O)N[C@@H](Cc1c[nH]c2ccccc12)C(=O)N[C@@H]1C(=O)N[C@@H]([C@@H](C)CC)C(=O)NCC(=O)N[C@@H](CO)C(=O)O[C@@H]1C (stereo partly shown) [Brevicidine, brevicidine, reference compound] ({Hexanoyl(4ξ-Me)}-[dN][dY][dW][dOrn][Orn]G[dOrn]WTIGS; ester 9-C)
- cytotoxicity / cell viability (HepG2 cells): completely non-toxic

Structure (SMILES): CC[C@H](C)[C@@H]1NC(=O)[C@@H](NC(=O)[C@H](Cc2c[nH]c3ccccc23)NC(=O)[C@@H](CCCN)NC(=O)CNC(=O)[C@H](CCCN)NC(=O)[C@@H](CCCN)NC(=O)[C@@H](Cc2c[nH]c3ccccc23)NC(=O)[C@@H](Cc2ccc(O)cc2)NC(=O)[C@@H](CO)NC(=O)CCCCCC(C)C)COC(=O)CNC(=O)CNC(=O)[C@H](CC(N)=O)NC1=O [Ser9-Laterocidine] ({Octanoyl(7-Me)}-[dS][dY][dW][dOrn][Orn]G[dOrn]WSINGG; ester 9-C)
- Minimum inhibitory concentration (MIC) (E. coli MCR-1): 0.5 µg/mL (≈ 0.314 µM)
- Minimum inhibitory concentration (MIC) (E. coli ATCC 25922 MCR-1): 0.5 µg/mL (≈ 0.314 µM)
- Minimum inhibitory concentration (MIC) (A. baumannii MDR): 2 µg/mL (≈ 1.26 µM)

Structure (SMILES): CCC(C)CCC(=O)N[C@H](CO)C(=O)N[C@H](Cc1ccc(O)cc1)C(=O)N[C@H](Cc1c[nH]c2ccccc12)C(=O)N[C@H](CCCN)C(=O)N[C@@H](CCCN)C(=O)NCC(=O)N[C@H](CCCN)C(=O)N[C@@H](Cc1c[nH]c2ccccc12)C(=O)N[C@H]1CNC(=O)CNC(=O)[C@H](CO)NC(=O)CNC(=O)[C@H]([C@@H](C)CC)NC1=O (stereo partly shown) [Dap9-Relacidamide A] ({Hexanoyl(4ξ-Me)}-[dS][dY][dW][dOrn][Orn]G[dOrn]W[Dap]IGSG; lactam 9-C)
- Minimum inhibitory concentration (MIC) (A. baumannii ATCC 17978): 4 µg/mL (≈ 2.61 µM)
- Minimum inhibitory concentration (MIC) (A. baumannii 2018-006): 2 to 4 µg/mL
- Minimum inhibitory concentration (MIC) (P. aeruginosa M-120): 1 to 2 µg/mL
- Minimum inhibitory concentration (MIC) (P. aeruginosa PAO1): 1 to 2 µg/mL
- Minimum inhibitory concentration (MIC) (P. aeruginosa NRZ-03961): 2 to 4 µg/mL
- Minimum inhibitory concentration (MIC) [1]: >64 µg/mL
- Minimum inhibitory concentration (MIC) [2]: 2 µg/mL (≈ 1.3 µM)
- Minimum inhibitory concentration (MIC) [3]: 1 to 2 µg/mL
- Minimum inhibitory concentration (MIC) [4]: 0.5 to 1 µg/mL
- Minimum inhibitory concentration (MIC) (K. pneumoniae ATCC 11228): 2 µg/mL (≈ 1.3 µM)
- Minimum inhibitory concentration (MIC) (K. pneumoniae JS-123): 1 µg/mL (≈ 0.652 µM)
- Minimum inhibitory concentration (MIC) (K. pneumoniae 2048): 2 µg/mL (≈ 1.3 µM)
- Minimum inhibitory concentration (MIC) (K. pneumoniae ATCC 13883): 2 µg/mL (≈ 1.3 µM)

Structure (SMILES): CC[C@@H](C)[C@H]1NC(=O)[C@H](NC(=O)[C@@H](Cc2c[nH]c3ccccc23)NC(=O)[C@H](CCCN)NC(=O)CNC(=O)[C@@H](CCCN)NC(=O)[C@H](CCCN)NC(=O)[C@H](Cc2c[nH]c3ccccc23)NC(=O)[C@H](Cc2ccc(O)cc2)NC(=O)[C@H](CO)NC(=O)CCCCCC(C)C)[C@H](C)OC(=O)CNC(=O)CNC(=O)[C@@H](CC(N)=O)NC1=O [ent- Laterocidine] ({Octanoyl(7-Me)}-SYW[Orn][dOrn]G[Orn][dW][dT][dI][dN]GG; ester 9-C)
- Minimum inhibitory concentration (MIC) (E. coli EQAS MCR-2): 8 to 16 µg/mL
- Minimum inhibitory concentration (MIC) (E. coli MCR-1): 8 to 16 µg/mL
- Minimum inhibitory concentration (MIC) (E. coli ATCC 25922 MCR-1): 8 to 16 µg/mL
- Minimum inhibitory concentration (MIC) (A. baumannii MDR): 4 to 8 µg/mL

Structure (SMILES): CC[C@H](C)[C@@H]1NC(=O)[C@@H](NC(=O)[C@H](Cc2c[nH]c3ccccc23)NC(=O)[C@@H](CCCN)NC(=O)CNC(=O)[C@H](CCCN)NC(=O)[C@@H](CCCN)NC(=O)[C@@H](Cc2c[nH]c3ccccc23)NC(=O)[C@@H](Cc2ccc(O)cc2)NC(=O)[C@@H](CO)NC(=O)CCCCCC(C)C)[C@@H](C)OC(=O)CNC(=O)CNC(=O)[C@H](CC(N)=O)NC1=O [Laterocidine, laterocidine, reference compound] ({Octanoyl(7-Me)}-[dS][dY][dW][dOrn][Orn]G[dOrn]WTINGG; ester 9-C)
- Minimum inhibitory concentration (MIC) (E. coli EQAS MCR-2): 1 µg/mL (≈ 0.623 µM)
- Minimum inhibitory concentration (MIC) (E. coli MCR-1): 0.5 µg/mL (≈ 0.312 µM)
- Minimum inhibitory concentration (MIC) (E. coli ATCC 25922 MCR-1): 2 µg/mL (≈ 1.25 µM)
- Minimum inhibitory concentration (MIC) (A. baumannii MDR): 1 µg/mL (≈ 0.623 µM)
- cytotoxicity / cell viability (HepG2 cells): completely non-toxic

Structure (SMILES): CCC(C)CCC(=O)N[C@H](CC(N)=O)C(=O)N[C@H](Cc1ccc(O)cc1)C(=O)N[C@H](Cc1c[nH]c2ccccc12)C(=O)N[C@H](CCCN)C(=O)N[C@@H](CCCN)C(=O)NCC(=O)N[C@H](CCCN)C(=O)N[C@@H](Cc1c[nH]c2ccccc12)C(=O)N[C@@H](CO)C(=O)N[C@H](C(=O)NCC(N)=O)[C@@H](C)CC (stereo partly shown) [Und(9-Ser)-NH2] ({Hexanoyl(4ξ-Me)}-[dN][dY][dW][dOrn][Orn]G[dOrn]WSIG-NH2)
- E. coli MIC (E. Coli NCTC 12241): 0.78 µg/mL
- E. coli MIC (E. coli): 0.78 µg/mL
